“And” between values parts separate entries of the source, which are not always exact repeats. Equal values may be shown once.
Tests used:
[1] = biological target: T1, LRRK2^KW (Homo sapiens, UniProt Q5S007); assay: DSF thermal stabilization of LRRK2^KW; assay type: binding; settings: DSF, LRRK2^KW, 10 μM inhibitor
T1 construct: LRRK2 R1847 to E2527; His6-Z-tag (TEV cleavable) (N, cleaved yes); host or cells: Sf9 insect cells (baculovirus)
T1 sequence (Q5S007 1847-2527): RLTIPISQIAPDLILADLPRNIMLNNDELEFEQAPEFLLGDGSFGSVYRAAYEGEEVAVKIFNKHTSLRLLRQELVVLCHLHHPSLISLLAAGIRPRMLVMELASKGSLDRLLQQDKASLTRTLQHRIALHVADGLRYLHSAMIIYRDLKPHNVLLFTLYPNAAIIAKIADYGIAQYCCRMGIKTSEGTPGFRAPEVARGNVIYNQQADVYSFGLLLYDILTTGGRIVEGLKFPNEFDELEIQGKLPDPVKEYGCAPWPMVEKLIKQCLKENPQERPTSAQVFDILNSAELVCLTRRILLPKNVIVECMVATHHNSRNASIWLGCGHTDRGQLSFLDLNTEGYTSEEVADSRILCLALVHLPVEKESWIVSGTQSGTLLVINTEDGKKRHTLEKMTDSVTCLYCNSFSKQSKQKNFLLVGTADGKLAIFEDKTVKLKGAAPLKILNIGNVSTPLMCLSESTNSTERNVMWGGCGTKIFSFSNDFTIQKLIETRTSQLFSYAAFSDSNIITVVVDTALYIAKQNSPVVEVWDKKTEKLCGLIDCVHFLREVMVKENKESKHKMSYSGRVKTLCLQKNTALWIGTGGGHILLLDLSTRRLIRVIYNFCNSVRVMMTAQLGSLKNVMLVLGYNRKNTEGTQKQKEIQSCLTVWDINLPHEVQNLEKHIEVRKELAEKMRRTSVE
Method: To characterize binding between small molecules and LRRK2^KW, induced thermal stabilization was measured by DSF according to previously established protocols ([47]). In brief, LRRK2^KW was diluted to 4 μM in 20 mM Hepes (pH 7.4), 150 mM NaCl, 0.5 mM TCEP, 0.5% glycerol, 20 μM GDP, and 2.5 mM MgCl2, and SYPRO Orange was added (1:1000, MilliporeSigma). Inhibitor (10 μM) to be tested was added to a final sample volume of 20 μl per well of a 96-well plate (white, Starlab). […] The fluorescence was plotted against the temperature, and the melting point (Tm) was determined as the minimum of the first derivative relative to the control.

[2] = biological target: T2, LRRK2^RCKW (Homo sapiens, UniProt Q5S007); assay: Biochemical LRRK2 activity assay (PhosphoSense, AssayQuant SOX peptide AQT0615); settings: for normalized response (LRRK2 activity): normalized to 0% (no kinase) and 100% (no inhibitor) control, two singlicate columns per compound
T2 construct: LRRK2 R1327 to E2527; His6-Z-tag (TEV cleavable) (N, cleaved yes); host or cells: Sf9 insect cells (baculovirus)
T2 sequence (Q5S007 1327-2527): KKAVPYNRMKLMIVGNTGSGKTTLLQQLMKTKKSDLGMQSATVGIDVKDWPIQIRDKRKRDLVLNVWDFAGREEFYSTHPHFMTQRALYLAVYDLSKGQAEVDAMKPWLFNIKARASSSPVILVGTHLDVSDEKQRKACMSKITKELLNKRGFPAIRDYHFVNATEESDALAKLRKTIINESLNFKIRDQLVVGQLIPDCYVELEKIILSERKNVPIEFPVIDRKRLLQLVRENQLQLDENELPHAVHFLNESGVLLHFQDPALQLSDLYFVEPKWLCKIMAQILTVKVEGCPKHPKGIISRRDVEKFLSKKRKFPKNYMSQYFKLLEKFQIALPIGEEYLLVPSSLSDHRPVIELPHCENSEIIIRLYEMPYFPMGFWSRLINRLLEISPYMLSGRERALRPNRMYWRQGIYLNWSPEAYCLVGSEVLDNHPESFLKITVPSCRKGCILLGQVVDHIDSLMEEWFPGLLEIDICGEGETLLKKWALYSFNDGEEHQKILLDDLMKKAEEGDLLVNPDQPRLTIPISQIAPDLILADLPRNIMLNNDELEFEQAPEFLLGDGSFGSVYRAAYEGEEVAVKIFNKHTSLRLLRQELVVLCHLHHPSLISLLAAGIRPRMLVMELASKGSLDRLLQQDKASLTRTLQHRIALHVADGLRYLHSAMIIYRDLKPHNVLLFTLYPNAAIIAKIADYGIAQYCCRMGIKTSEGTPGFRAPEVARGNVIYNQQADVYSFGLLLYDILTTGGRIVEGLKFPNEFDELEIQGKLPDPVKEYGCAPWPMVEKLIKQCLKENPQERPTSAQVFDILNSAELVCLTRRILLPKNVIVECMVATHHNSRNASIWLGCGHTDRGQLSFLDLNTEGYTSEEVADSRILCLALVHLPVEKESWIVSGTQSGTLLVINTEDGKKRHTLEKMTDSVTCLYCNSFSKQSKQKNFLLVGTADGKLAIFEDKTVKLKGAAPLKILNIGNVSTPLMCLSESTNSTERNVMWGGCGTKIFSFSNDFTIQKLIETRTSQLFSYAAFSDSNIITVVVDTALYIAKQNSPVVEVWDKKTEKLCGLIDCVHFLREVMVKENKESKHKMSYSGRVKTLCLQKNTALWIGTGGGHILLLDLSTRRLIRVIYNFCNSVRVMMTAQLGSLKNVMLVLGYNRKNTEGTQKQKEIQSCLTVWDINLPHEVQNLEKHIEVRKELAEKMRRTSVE
Method: Two wells per compound were used as 0% (without protein and compound) and 100% (without compound) control. […] The 0% control wells were filled with 10 μl of pure reaction buffer. With the ECHO, 5 nl of 100 mM ATP was pipetted into each well, the plates were centrifuged at 1500g for 2 min, and the reaction was incubated at room temperature for 4 hours. The fluorescence of the SOX-peptide after 360-nm excitation was measured at 487-nm emission with a PHERAstar plate reader (BMG Labtech). The IC50 values were calculated from a nonlinear regression of the log[inhibitor] versus the normalized response with GraphPad Prism 8 (www.graphpad.com/, RRID:SCR_002798).

[3] = LRRK2^RCKW kinase activity, in vitro

Row | ∆Tm (K) [1] | IC50 [2, 3] | normalized response (LRRK2 activity) ([2]; log[inhibitor(mol)] -4.82391) | normalized response (LRRK2 activity) ([2]; log[inhibitor(mol)] -5.12494) | normalized response (LRRK2 activity) ([2]; log[inhibitor(mol)] -5.60206) | normalized response (LRRK2 activity) ([2]; log[inhibitor(mol)] -6.30103) | normalized response (LRRK2 activity) ([2]; log[inhibitor(mol)] -6.90309) | normalized response (LRRK2 activity) ([2]; log[inhibitor(mol)] -7.30103) | normalized response (LRRK2 activity) ([2]; log[inhibitor(mol)] -7.60206) | normalized response (LRRK2 activity) ([2]; log[inhibitor(mol)] -8.09691) | normalized response (LRRK2 activity) ([2]; log[inhibitor(mol)] -8.61979) | normalized response (LRRK2 activity) ([2]; log[inhibitor(mol)] -9.09691) | normalized response (LRRK2 activity) ([2]; log[inhibitor(mol)] -9.39794) | IC50 ([2]; Table S2, bound printed in μM under head IC50 [nM]) | Structure (SMILES)
1 | 7.0 K | 0.912 ± 0.141 µM | 4.225% and -5.581% | 6.8846% and 7.148% | 31.5798% and 32.6109% | 61.7209% and 66.4318% | 86.2516% and 93.0519% | 93.3097% and 89.5476% | 86.8493% and 91.0776% | 91.1928% and 88.5988% | 102.068% and 96.0518% | 105.369% and 96.9676% | 104.196% and 102.019% | – | O=C(c1cccc(NC(=O)C2(C(=O)Nc3ccc(F)cc3)CC2)c1)c1c[nH]c2ncnc(N3CCOCC3)c12 [Compound 8]
2 | 1.5 K | – | – | – | – | – | 115.444% and 117.007% | 105.55% and 105.293% | 108.325% and 105.046% | 100.105% and 95.8379% | 94.7466% and 91.6315% | 101.92% and 85.7909% | 98.761% and 96.3918% | – | COc1cc(S(C)(=O)=O)ccc1Nc1nc(N(C)C)c2c(-c3cccc(NC(=O)Nc4cc(C(C)(C)C)nn4-c4ccc5ncccc5c4)c3)c[nH]c2n1 [Compound 35]
3 | 1.0 K | – | – | – | – | – | – | 124.559% and 124.399% | 116.776% and 118.915% | 103.198% and 104.843% | 103.872% and 98.2729% | 102.243% and 101.201% | 101.448% and 104.602% | – | COc1cc(S(C)(=O)=O)ccc1Nc1nc(N(C)C)c2c(-c3cccc(NC(=O)Nc4cc(C(C)(C)C)nn4-c4ccc(C)cc4)c3)c[nH]c2n1 [Compound 33]
4 | 4.0 K | 2.11 ± 1.19 µM | – | – | 49.186% and 49.8222% | 82.8654% and 52.2345% | 104.293% and 98.1919% | 105.91% and 76.5961% | 104.315% and 59.7541% | 97.675% and 89.444% | 99.5438% and 104.868% | 109.546% and 62.2548% | 105.46% and 118.944% | – | Cn1cc(NC(=O)C2(C(=O)Nc3cccc(-c4c[nH]c5ncnc(N6CCOCC6)c45)c3)CC2)cn1 [Compound 9]
5 | 6.0 K | 0.694 ± 0.001 µM | -13.5275% and -8.323% | -11.1035% and -8.9537% | 14.4144% and 11.8039% | 58.5784% and 59.582% | 93.4358% and 94.7027% | 100.456% and 104.273% | 103.702% and 110.256% | 103.006% and 100.445% | 97.1047% and 100.867% | 96.2602% and 102.309% | 100.406% and 102.43% | – | O=C(Nc1ccc(F)cc1)C1(C(=O)Nc2cccc(-c3c[nH]c4ncnc(N5CCOCC5)c34)c2)CCCC1 [Compound 3]
6 | 3.0 K | – | 115.049% and 93.8598% | 99.0859% and 93.2217% | 93.6133% and 98.8538% | 94.4738% and 97.6114% | 97.3406% and 97.6501% | 98.4526% and 101.585% | 103.828% and 100.546% | 94.8702% and 94.0339% | 91.8535% and 95.7453% | 97.0119% and 90.234% | 103.089% and 99.1004% | > 15 µM | O=C(Nc1ccc(F)cc1)C1(C(=O)Nc2cccc(-c3ccc4n[nH]cc4c3)c2)CC1 [Compound 47]

Row | Structure (SMILES) | ∆Tm (K) [1] | IC50 [2, 3] | normalized response (LRRK2 activity) ([2]; log[inhibitor(mol)] -4.82391) | normalized response (LRRK2 activity) ([2]; log[inhibitor(mol)] -5.12494) | normalized response (LRRK2 activity) ([2]; log[inhibitor(mol)] -5.60206) | normalized response (LRRK2 activity) ([2]; log[inhibitor(mol)] -6.30103) | normalized response (LRRK2 activity) ([2]; log[inhibitor(mol)] -6.90309) | normalized response (LRRK2 activity) ([2]; log[inhibitor(mol)] -7.30103) | normalized response (LRRK2 activity) ([2]; log[inhibitor(mol)] -7.60206) | normalized response (LRRK2 activity) ([2]; log[inhibitor(mol)] -8.09691) | normalized response (LRRK2 activity) ([2]; log[inhibitor(mol)] -8.61979) | normalized response (LRRK2 activity) ([2]; log[inhibitor(mol)] -9.09691) | normalized response (LRRK2 activity) ([2]; log[inhibitor(mol)] -9.39794) | IC50 ([2]; Table S2, bound printed in μM under head IC50 [nM])
7 | Cn1cc(-c2c[nH]c3ncnc(N4CCOCC4)c23)cc1C#N [PF-360, reference compound] | 14.0 ± 0.7 K | – | -6.35% and -14.8637% | -13.9757% and -14.0596% | -14.9079% and -13.9094% | -16.2775% and -13.8122% | -15.2172% and -15.9196% | -14.8814% and -10.0789% | – | -1.676% and 1.585% | 61.433% and 54.956% | 90.2569% and 81.7741% | 97.0785% and 81.4958% | –
